Data on 51 molecules can be found in patent US11814364B2, “Pyridine N-oxide derivatives useful as factor XIa inhibitors” (Janssen Pharmaceutica NV, priority 2021, dated 2023).

As a reminder, the IC50 is the concentration at which inhibition is half-maximal.

human plasma kallikrein, sequence (P03952 391-638 limits assumed): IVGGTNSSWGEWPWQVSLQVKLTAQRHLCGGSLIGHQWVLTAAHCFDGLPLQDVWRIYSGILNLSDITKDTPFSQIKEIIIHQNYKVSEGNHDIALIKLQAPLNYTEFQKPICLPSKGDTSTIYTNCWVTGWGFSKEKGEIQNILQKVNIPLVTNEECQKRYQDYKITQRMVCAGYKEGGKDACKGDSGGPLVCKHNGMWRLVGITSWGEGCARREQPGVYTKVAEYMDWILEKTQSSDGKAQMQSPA
human plasma kallikrein, sequence (P03952 20-390 partner limits assumed): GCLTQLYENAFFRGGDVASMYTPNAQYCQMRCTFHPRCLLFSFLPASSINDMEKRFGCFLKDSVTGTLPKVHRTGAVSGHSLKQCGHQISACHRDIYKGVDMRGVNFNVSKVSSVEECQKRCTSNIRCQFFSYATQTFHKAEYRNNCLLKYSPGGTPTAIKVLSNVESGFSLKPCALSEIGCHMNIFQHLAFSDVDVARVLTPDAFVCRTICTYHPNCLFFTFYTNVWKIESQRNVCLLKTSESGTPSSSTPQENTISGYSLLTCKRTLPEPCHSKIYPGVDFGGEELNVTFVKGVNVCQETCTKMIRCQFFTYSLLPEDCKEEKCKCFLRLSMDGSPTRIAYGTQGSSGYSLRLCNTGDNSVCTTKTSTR

This test has as its target human plasma kallikrein (Homo sapiens, UniProt P03952). As to the kind of experiment: Kallikrein inhibition FLINT assay with quenched AMC peptide substrate Z-Gly-Pro-Arg-AMC (end point EP or kinetic KIN reads). The format is biochemical. Conditions: kinetic reads at 5 min intervals over 30 min; read-out: Kallikrein (KIN) IC50. The procedure, abridged:
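Enzyme and compound were preincubated 30 min before adding 50 μM AMC substrate in pH 7.5 Tris/NaCl/CaCl2/BSA/CHAPS buffer. AMC release was read at 30 min endpoint or every 5 min.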
In the case of `COc1cc(C(CC2CC2)n2cc(-c3ccnn3C)cn2)[n+]([O-])cc1-c1c(-n2cnnn2)ccc(Cl)c1F` (single isomer, unassigned) [Example P490], the concentration for half-maximal inhibition (IC50) worked out at 16.3 nM.
For `Cc1nc(N)ccc1-c1cnn(C(CCOC(F)F)c2ccc(-c3c(-n4cnnn4)ccc(Cl)c3F)c[n+]2[O-])c1` (stereo not drawn) [Example P342] the value was 4.3 nM; for `Cn1cncc1-c1cnn(C(CC2CC2)c2ccc(-c3c(-n4cnnn4)ccc(Cl)c3F)c[n+]2[O-])c1` (stereo not drawn) [Example P495], 211 nM; for `CC(C)C(=O)N(C)CC(c1ccc(-c2c(-n3cnnn3)ccc(Cl)c2F)c[n+]1[O-])n1cc(-c2ccnc(C(F)(F)F)c2)cn1` (single isomer, unassigned) [Example P421], 41.1 nM.
For `Cc1cc(C(N)=O)sc1-c1cnn(C(CC2CC2)c2ccc(-c3c(-n4cc(C(F)(F)F)nn4)ccc(Cl)c3F)c[n+]2[O-])c1` (single isomer, unassigned) [Example P957] the value was 222 nM; for `[O-][n+]1cc(-c2c(-n3cnnn3)ccc(Cl)c2F)ccc1C(Cn1cc2c(n1)COCC2)n1cc(-c2ccnc(C(F)(F)F)c2)cn1` (stereo not drawn) [Example P465], 76.5 nM; for `NC(=O)C1CC1CC(c1ccc(-c2c(-n3cnnn3)ccc(Cl)c2F)c[n+]1[O-])n1cc(-c2ccc(N)nc2F)cn1` (single isomer, unassigned) [Example P340], 39.3 nM.
Turning to `[O-][n+]1ccc(-c2cnn(C(Cc3ccc(F)cc3)c3ccc(-c4c(OC(F)F)ccc(Cl)c4F)c[n+]3[O-])c2)cc1` (single isomer, unassigned) [Example Q17], the IC50 worked out at 7820 nM.
For `COC(=O)Nc1ccc(-c2cnn(C(Cc3ccc(F)cc3)c3ccc(-c4c(-n5cnnn5)ccc(Cl)c4F)c[n+]3[O-])c2)cc1` (stereo not drawn) [Example P117] the value was 9.7 nM; for `COC(=O)Nc1ccc(-c2cnn(C(CN(C)C(=O)OC)c3ccc(-c4c(-n5cnnn5)ccc(Cl)c4F)c[n+]3[O-])c2)cc1` (stereo not drawn) [Example P476], 21.6 nM.
Consider `O=C(O)C1CCN(C(=O)c2ccn(CC(c3ccc(-c4c(-n5cnnn5)ccc(Cl)c4F)c[n+]3[O-])n3cc(-c4ccncc4)cn3)n2)CC1` (stereo not drawn) [Example P444], for which the IC50 was found to be 1.8 nM.
On to `NC(=O)c1ccc(-c2cnn(C(CC3CC3)c3ccc(-c4c(-n5cc(C(F)(F)F)nn5)ccc(Cl)c4F)c[n+]3[O-])c2)s1` (stereo not drawn) [Example P904], for which the concentration for half-maximal inhibition (IC50) turned out to be 123 nM.
In the case of `Cn1ncc(Cl)c1-c1cnn(C(CC2CC2)c2ccc(-c3c(-n4cnnn4)ccc(Cl)c3F)c[n+]2[O-])c1` (stereo not drawn) [Example P555], the concentration for half-maximal inhibition (IC50) came out at 573 nM.
For `[O-][n+]1cc(-c2c(-n3cnnn3)ccc(Cl)c2F)ccc1[C@H](Cn1cc(F)cn1)n1cc(-c2cncs2)cn1` [Example P493], the IC50 amounted to 179 nM.
For `O=C(O)c1ccc(-c2cnn(C(Cc3ccn(C(F)F)n3)c3ccc(-c4c(-n5cc(Cl)nn5)ccc(Cl)c4F)c[n+]3[O-])c2)cc1` (single isomer, unassigned) [Example P898], the IC50 was found to be 2.5 nM.
Turning to `O=C1CCCN1CC(c1ccc(-c2c(-n3cnnn3)ccc(Cl)c2F)c[n+]1[O-])n1cc(-c2ccnc(F)c2)cn1` (stereo not drawn) [Example P257], the IC50 was determined as 7.1 nM.
As for `Cn1ncc(F)c1-c1cnn(C(CC2CC2)c2ccc(-c3c(-n4cnnn4)ccc(Cl)c3F)c[n+]2[O-])c1` (stereo not drawn) [Example P478], the half-maximal inhibitory concentration (IC50) was determined as 236 nM.
`[O-][n+]1cc(-c2c(-n3cnnn3)ccc(Cl)c2F)ccc1[C@@H](CCOC(F)F)n1cc(-c2cncn2C(F)F)cn1` [Example P771]: the half-inhibitory concentration (IC50) was 16.2 nM.
Regarding `Nc1ccc(-c2cnn(C(CC3CC3)c3ccc(-c4c(-n5cnnn5)ccc(Cl)c4F)c[n+]3[O-])c2)c(Cl)n1` (single isomer, unassigned) [Example P178], the IC50 stood at 21.6 nM.
With `O=C(O)c1ccc(-c2cnn(C(CC3OCCc4ccccc43)c3ccc(-c4cc(Cl)ccc4-n4cnnn4)c[n+]3[O-])c2)cc1` (stereo not drawn) [Example P128], the concentration for half-maximal inhibition (IC50) turned out to be 475 nM.
For `NC(=O)Cc1ccnn1CC(c1ccc(-c2c(-n3cnnn3)ccc(Cl)c2F)c[n+]1[O-])n1cc(-c2ccnc(C(F)(F)F)c2)cn1` (stereo not drawn) [Example P470] the value was 99.5 nM.
For the molecule `Nc1ccc(-c2cnn(C(Cn3cc(F)cn3)c3ccc(-c4c(-n5cnnn5)ccc(Cl)c4F)c[n+]3[O-])c2)c(F)n1` (single isomer, unassigned) [Example P416], the half-maximal inhibitory concentration (IC50) worked out at 3.3 nM.
For `[O-][n+]1cc(-c2c(-n3cnnn3)ccc(Cl)c2F)ccc1[C@@H](Cc1ccc(F)cc1)n1cc(-c2ccnn2C(F)F)cn1` [Example P568], the IC50 worked out at 3.1 nM.
In the case of `Cc1cc(-c2cnn(C(Cn3cc(F)cn3)c3ccc(-c4c(-n5cnnn5)ccc(Cl)c4F)c[n+]3[O-])c2)cc(C)[n+]1[O-]` (stereo not drawn) [Example P477], the 50% inhibitory concentration (IC50) came to 188 nM.
The value for `NC(=O)c1ccc(-c2cnn(C(Cc3ccn(C(F)F)n3)c3ccc(-c4c(-n5cc(Cl)nn5)ccc(Cl)c4F)c[n+]3[O-])c2)cc1F` (single isomer, unassigned) [Example P893] was 20.5 nM.
The value for `O=C(c1cnn(CC(c2ccc(-c3c(-n4cnnn4)ccc(Cl)c3F)c[n+]2[O-])n2cc(-c3ccncc3)cn2)c1)N1CCCCC1` (stereo not drawn) [Example P291] was 12.5 nM; that for `CC(C)C(=O)N(C)CC(c1ccc(-c2c(-n3cnnn3)ccc(Cl)c2F)c[n+]1[O-])n1cc(-c2ccnc(F)c2)cn1` (stereo not drawn) [Example P418] was 55.6 nM.
The value for `Cn1ncnc1-c1cnn(C(Cc2ncco2)c2ccc(-c3c(-n4cc(C(F)(F)F)nn4)ccc(Cl)c3F)c[n+]2[O-])c1` (stereo not drawn) [Example P925] was 187 nM.
Turning to `CC(C)(O)C[C@H](c1ccc(-c2c(-n3cnnn3)ccc(Cl)c2F)c[n+]1[O-])n1cc(-c2ccnn2C(F)F)cn1` [Example P648], the IC50 was determined as 532 nM.
Regarding `[2H]C([2H])([2H])n1ncc(NC(=O)C2CC2)c1-c1cnn(C(CCOC(F)F)c2ccc(-c3c(-n4cc(Cl)nn4)ccc(Cl)c3F)c[n+]2[O-])c1` (single isomer, unassigned) [Example P810], the half-maximal inhibitory concentration (IC50) is around 383 nM.
For `O=C(c1cnn(CC(c2ccc(-c3c(-n4cnnn4)ccc(Cl)c3F)c[n+]2[O-])n2cc(-c3ccnc(C(F)(F)F)c3)cn2)c1)N1CCCCC1` (single isomer, unassigned) [Example P411] the value was 16 nM.
The value for `Cn1nnc(F)c1-c1cnn(C(CC2CC2)c2ccc(-c3c(-n4cnnn4)ccc(Cl)c3F)c[n+]2[O-])c1` (stereo not drawn) [Example P744] was 48.9 nM.
`Cn1ncnc1-c1cnn([C@H](CCOC(F)F)c2ccc(-c3cc(Cl)ccc3-n3cc(C(F)(F)F)nn3)c[n+]2[O-])c1` [Example P805]: the IC50 is 256 nM.
Regarding `COC(=O)Nc1ccc(-c2cnn(C(Cc3ccn(C)n3)c3ccc(-c4c(-n5cnnn5)ccc(Cl)c4F)c[n+]3[O-])c2)cc1` (racemic) [Example P327], the half-inhibitory concentration (IC50) was 29.1 nM.
Take `NC(=O)C1CC1CC(c1ccc(-c2c(-n3cnnn3)ccc(Cl)c2F)c[n+]1[O-])n1cc(-c2ccc(N)nc2F)cn1` (racemic) [Example P201]: the IC50 was determined as 73.9 nM.
The value for `Cn1ncnc1-c1cnn(C(CCOC(F)(F)F)c2ccc(-c3c(-n4cc(C(F)(F)F)nn4)ccc(Cl)c3F)c[n+]2[O-])c1` (stereo not drawn) [Example P840] was around 423 nM; that for `NC(=O)c1ccc(-c2cnn(C(Cc3ncco3)c3ccc(-c4c(-n5cc(C(F)(F)F)nn5)ccc(Cl)c4F)c[n+]3[O-])c2)cc1F` (stereo not drawn) [Example P909] was 5.5 nM.
For `COC(=O)Nc1ccc(-c2cnn(C(CC3CCCC3)c3ccc(-c4c(-n5cnnn5)ccc(Cl)c4F)c[n+]3[O-])c2)cc1` (stereo not drawn) [Example P110] the value was 123 nM.
For `NC(=O)c1ccc(-c2cnn(C(Cc3ccn(C(F)F)n3)c3ccc(-c4c(C(F)F)ccc(Cl)c4F)c[n+]3[O-])c2)cc1F` (single isomer, unassigned) [Example Q66] the value was 477 nM; for `[O-][n+]1cc(-c2c(-n3cnnn3)ccc(Cl)c2F)ccc1C(Cn1cc(F)cn1)n1cc(-c2ccncc2)cn1` (stereo not drawn) [Example P276], 8.1 nM.
Consider `COC(=O)Nc1ccc(-c2cnn(C(CC(C)OC)c3ccc(-c4c(-n5cnnn5)ccc(Cl)c4F)c[n+]3[O-])c2)cc1` (single isomer, unassigned) [Example P228], for which the IC50 came to 1290 nM.
For `CCC(c1ccc(-c2c(-n3cnnn3)ccc(Cl)c2F)c[n+]1[O-])n1cc(-c2ccncc2)cn1` (single isomer, unassigned) [Example P212], the IC50 stood at 59.3 nM.
With `O=C(O)c1ccc(-c2cnn(C(c3ccc(-c4cc(Cl)ccc4-n4cnnn4)c[n+]3[O-])C(O)c3ccccc3)c2)cc1` (single isomer, unassigned) [Example P118], the 50% inhibitory concentration (IC50) stood at 64.9 nM.
For `Cn1ncnc1-c1cnn([C@H](CCOC(F)F)c2ccc(-c3c(-n4cc(Cl)nn4)ccc(Cl)c3F)c[n+]2[O-])c1` [Example P722] the value was 39.6 nM; for `[O-][n+]1cc(-c2c(-n3cnnn3)ccc(Cl)c2F)ccc1C(CC1CC1)n1cc(-c2cnco2)cn1` (stereo not drawn) [Example P497], 169 nM.
The value for `NC(=O)c1ccc(-c2cnn(C(CC3CC3)c3ccc(-c4c(-n5cnnn5)ccc(Cl)c4F)c[n+]3[O-])c2)cc1F` (single isomer, unassigned) [Example P947] was 14.5 nM; that for `CCCC(c1ccc(-c2c(-n3cnnn3)ccc(Cl)c2F)c[n+]1[O-])n1cc(-c2ccc(NC(=O)OC)cc2)cn1` (single isomer, unassigned) [Example P158] was 45.1 nM.
For `NC(=O)C1CC1CC(c1ccc(-c2c(-n3cnnn3)ccc(Cl)c2F)c[n+]1[O-])n1cc(-c2ccc(N)nc2F)cn1` (single isomer, unassigned) [Example P341] the value was 320 nM; for `Cn1ncnc1-c1cnn(C(CC2CC2)c2ccc(-c3c(-n4cc(C(F)(F)F)nn4)ccc(Cl)c3F)c[n+]2[O-])c1` (stereo not drawn) [Example P874], 41.4 nM.
Turning to `[O-][n+]1cc(-c2c(-n3cnnn3)ccc(Cl)c2F)ccc1C(CC1CCCO1)n1cc(-c2ccncc2)cn1` (stereo not drawn) [Example P186], the 50% inhibitory concentration (IC50) is 320 nM.
The value for `[O-][n+]1cc(-c2c(-n3cnnn3)ccc(Cl)c2F)ccc1[C@@H](CCOC(F)F)n1cc(-c2cnn(C(F)F)n2)cn1` [Example P674] was 54.9 nM.
